Test [1] can be described thus: beta-oxidation assay: 14C-palmitic acid incorporated into liver triglyceride. It counts as in vivo, mouse. The conditions noted are these: DIO mice fed 50 mg/kg for 7 days; liver removed 10 min after 14C-palmitic acid IV.
Procedure: The injection solution prepared in Section 1 was injected into tail veins of DIO mice at a dose of 10 microCi/150 μl/head, and the liver was removed 10 min later.
The removed liver was immediately and rapidly frozen in liquid nitrogen and weighed. A 5-fold weight of a 5 mM Tris-HCl buffer solution containing 0.25 M sucrose, 5 mM MgCl2, 1 mM mercaptoethanol and 0.5 mM EDTA was added to the liver tissues which were then homogenized. Equal amounts of each sample was taken and transferred to fresh 15 mL containers to which a 2.5-fold amount of C/M solution (chloroform:MetOH=2:1) was added, respectively. The mixtures were thoroughly mixed using a homogenizer for 2 min, centrifuged at 2500 rpm for 20 min to separate chloroform layers that were then transferred to fresh containers. The remaining materials were thoroughly mixed with 2-fold amounts of the C/M solution for 2 min, and centrifuged to separate chloroform layers. […] Then, more than 10-fold volumes of a toluene cocktail solution were added to chloroform layers of the vials and the mixtures were thoroughly mixed using a stirrer, and radioactivity was measured using a scintillation counter.
10 μCi of 14C-palmitic acid was IV-injected to a tail vein of mice and 10 min later the liver was removed and homogenized Fat was extracted from the homogenizate, and radioactivity was measured by a liquid scintillation counter.
Test [2] has as its system HEK293 cells. Nature of the test: mitochondrial membrane potential (TMRE fluorescence) in HEK293 cells. In kind it is cell-based, human. The method, then: For determination of the inner mitochondrial membrane potential (ΔΨm), 20 nM of TMRE (tetramethylrhodamine ethyl ester) as a fluorescent indicator was continuously applied to be loaded on cells. In order to monitor mitochondrial Ca^2+, cells on glass coverslips were loaded with 10 μM Rhod-2 AM via cold loading/warm incubation. In order to monitor cytosolic Ca^2+, cells were co-loaded with 10 μM Fluo-4 AM at 37′C for 30 min. The cells were washed twice with a KB solution, and mounted in a perfusion chamber. Fluorescent imaging was taken using a confocal laser scanning microscope (LSM-510 META, Carl Zeiss) at a magnification of ×200 and ×400, in conjunction with appropriate laser lines and a filter set. Image analysis was carried out using LSM-510 META software (Zeiss). Images for TMRE (red fluorescence), Rhod-2 (red fluorescence) and Fluo-4 (green fluorescence) were obtained using an inverted Zeiss 510META laser-scanning confocal microscope equipped with ×63 numerical aperture, 1.4 oil-immersion planapochromat lens. Green fluorescence and red fluorescence were illuminated with light of 488 nm and 543 nm. Incident light was passed through a 545 nm dichroic mirror and observed via a 500 to 530 nm band-pass (green) filter and a 560 nm long-pass (red) barrier filter.
However, such effects were not observed in HEK293 cells. […]

Test [3] in a line: body weight, dietary intake, fat and tissue histology in C57BL/6 DIO mice. In kind it is in vivo, mouse. The method, then: The removed tissues were cut into a proper size, fixed in 10% formalin, washed with water, and embedded in paraffin to prepare blocks, according to a conventional method. The thus-prepared blocks were sectioned into a 4 μm thickness and subjected to hematoxylin and eosin (H&E) staining for observation of general changes.
For observation of cellular microstructures, the removed tissues were sliced into a size of 1 mm^3, pre-fixed in 2.5% glutaraldehyde (0.1M PBS, pH 7.4, 4° C.) for 2 to 4 hours, washed, and post-fixed in a 1% osmium tetroxide solution for 2 hours. Then, according to a conventional method, the tissues were dehydrated with serial concentrations of ethanol and the solvent was replaced with propylene oxide. The tissues were embedded in an epoxy resin mixture, and the embedded tissues were subjected to thermal polymerization to prepare blocks. The thus-prepared blocks were sectioned into a thickness of 0.5 to 1 μm using a ultramicrotome and stained with toludine blue. Observation sites were selected under a light microscope and the tissues were ultrasectioned to a thickness of 60 to 70 nm. The ultrasectioned specimens were subjected to dual staining of uranyl acetate and lead citrate and were observed under a transmission electron microscope (H-600, Hitachi, Japan) at an accelerating voltage of 75 kV.
Cryosectioned tissues were sectioned into a thickness of 5 μm, dried in air for 1 hour and reacted in a filtered 0.5% oil red 0 solution for 20 min. The tissue sections were washed with tap water, subjected to double staining with Gill hematoxylin for 20 to 30 sec, water-washed, and observed.
Adipose tissues were sectioned into a thickness of 3 μm, deparaffinized, exposed to antigens in a citrate buffer under high pressure for 4 min and washed. The mixture was reacted in a 3% hydrogen peroxide solution for 10 min, and the reaction product was washed three times with a TBST solution for 3 min. The product was reacted with primary antibodies (guinea pig, anti-perilipin) against 200-fold diluted perilipin for 1 hour and washed with a TBST solution. Secondary antibodies (donkey anti-guinea pig, cy3-conjugated) were added and reacted with the product for 30 min. The reaction product was washed three times with a TBST solution for 3 min, mounted with Fluormount G and then observed under a fluorescence microscope.
Animals were continuously fed high-fat diet pellets for 3 to 4 weeks, thereby establishing DIO mice. Mice were raised in a breeding room with a 12 h/12 h light/dark D) cycle. Animals were divided into three groups, i.e., a group with administration of physiological saline (n=3), a group with administration of a vehicle (n=5) and a group with administration of 50 mg/kg of a candidate compound (n=7). Samples were orally administered to animals every day. On Days 7, 28 and 56, each tissue was removed, frozen in liquid nitrogen, and stored at […] for short and long periods of time.
All experimental animal procedures were performed according to a guideline of Institutional Animal Care and Use Committee, Chungnam National University School of Medicine. OLETF rats were purchased from Otsuka Research Institute. Male ob/ob and C57BL/6 mice were purchased from Jackson Laboratory. Animals were housed in a breeding room maintained at a constant temperature of […] and a 12 h/12 h light/dark (L/D) cycle. 4-week-old C57BL/6 male mice were fed ad libitum high fat diet (HFD, 24% (w/w) and 45% calories as fat, Research Diets Inc., New Brunswick, N.J. 08901, US) for 7 weeks. Mouse groups were divided into an untreated group, a vehicle-treated group (calcium silicate), a pair-fed group and a candidate compound-treated group (calcium silicate-coated […] nanoparticles). Body weight and dietary intake of animals were daily measured. Upon completion of experiments, some mice of each group were anesthetized and received MRI examinations. The remaining mice of the groups were anatomized and tissue weight thereof was measured. […]

SMILES strings stand for the structures. A value given as a limit tells only on which side of the number the result lay.

In the case of `CC1(C)CCC2=C(O1)c1ccccc1C(=O)C2=O` [βL, 2,2-Dimethyl-3,4-dihydro-2H-benzo[h]chromene-5,6-dione], in test [1], the “amount of 14C-palmitic acid incorporated into hepatic triglyceride (TG), lower than vehicle-treated mice” value is reported as “about 45%”. For the same compound, in test [2], the “effect on TMRE fluorescence / ΔΨm” value is given as “not observed”. In test [3] (C57BL/6 DIO mice, 56 days), the “EM of liver tissues” value was “remarkably decreased fat vacuoles and glycogen stores”; the “accumulated fat in the liver (oil red O staining), diminished compared to control” value is reported as ≥ 90%; the “visceral fat and body weight” value is “conspicuous decreases”. For the same compound, the “amounts of subcutaneous, mesenteric, perirenal and gonadal fats” value in test [3] (C57BL/6 DIO, first four weeks of 56 days) was “gradually decreased”. For the same compound, the “number of type 1 myofibers in the soleus muscle” value in test [3] (DIO mice) is listed as “increased”. For the same compound, in test [3] (Day 56, 50 mg/kg daily oral), the “size of adipocytes, brown adipose tissues (H&E staining, EM)” value is “remarkably decreased” and the “size of adipocytes, gonadal adipose tissues (perilipin staining)” value is recorded as “remarkably decreased”. Besides, the body weight entry in test [3] (obese mice on high-fat diet, 50 mg/kg daily oral, 56 days) was “continuous weight loss for 56 days”. Besides, the dietary intake result in test [3] (obese mice, 50 mg/kg daily oral, 56 days) is “decreases in dietary intake for the first two weeks”. Further, the “muscle mitochondria (EM)” value in test [3] (βL-treated DIO mice and ob/ob mice) was “normal morphology and increased numbers of mitochondria”.

The record behind these values is US20140106387A1, “METHOD FOR CONTROLLING NAD(P)/NAD(P)H RATIO BY OXIDOREDUCTASE” (MD BIOALPHA CO., LTD., priority 2006, published 2014).
